Reference: article PMC9301488, “Expression, Characterization, Fermentation, Immobilization, and Application of a Novel Esterase Est804 From Metagenomic Library in Pesticide Degradation” (Frontiers in Microbiology, 2022)

System: T1, Est804
T1 construct: expressed in E. coli BL21(DE3); lysate supernatant called crude, His-tag purification described for SDS-PAGE
Experiment: release of p-nitrophenol at […] nm, Lineweaver-Burk plot
Format: biochemical, soil metagenome
Conditions: free enzyme; 0.0-5.0 mM substrate; Britton-Robinson buffer pH 6.8, 40 °C (standard conditions); crude lysate supernatant mentioned, purity of the kinetic sample not clear

`CC(=O)Oc1ccc([N+](=O)[O-])cc1` [ρ-nitrophenyl acetate] showed a Km of 613 µM.
